Reference: ChEMBL document CHEMBL6127107, “Oleanolic acid derivatives against drug-resistant bacteria and fungi by multi-targets to avoid drug resistance” (Eur J Med Chem, 2024)
Converted amounts (≈) assume the structure as drawn. The source made the active and inactive calls. The calls are words filed in the database; no cut-off is given here.

Key:
Enterococcus faecalis = assay: Antimicrobial activity against vancomycin resistant Enterococcus faecalis ATCC 51299; format: functional
Staphylococcus aureus [1] = assay: Antimicrobial activity against methicillin-resistant Staphylococcus aureus 011; format: functional
Staphylococcus aureus [2] = assay: Antimicrobial activity against Staphylococcus aureus 29; format: functional
Staphylococcus aureus [3] = assay: Antimicrobial activity against Staphylococcus aureus 31; format: functional
Staphylococcus aureus [4] = assay: Antimicrobial activity against Staphylococcus aureus 10; format: functional
Candida albicans = assay: Antimicrobial activity against fluconazole-resistant Candida albicans; format: functional
[5] = Hemolytic activity against Mianyang red blood cells (unknown origin); format: toxicity, cell-based, RBC
[6] = Selectivity index, ratio of HC50 for hemolytic activity against Mianyang red blood cells (unknown origin) to MIC for antimicrobial activity against methicillin resistant Staphylococcus aureus 003; format: toxicity, cell-based, RBC; settings: read-out: Selectivity Index
Pseudomonas aeruginosa = assay: Antimicrobial activity against Pseudomonas aeruginosa; format: functional
Escherichia coli = assay: Antimicrobial activity against Escherichia coli; format: functional
Staphylococcus aureus [7] = assay: Antibacterial activity against methicillin-resistant Staphylococcus aureus assessed as inhibition of bacterial growth at 1 times of MIC; format: functional, organism-based
Staphylococcus aureus [8] = assay: Bactericidal activity against methicillin-resistant Staphylococcus aureus; format: functional, organism-based
Staphylococcus aureus [9] = assay: Bactericidal activity against methicillin-resistant Staphylococcus aureus assessed as eradication of bacterial growth at 4 times of MIC measured within 1 hrs relative to control; format: functional
Staphylococcus aureus [10] = assay: Antibacterial activity against methicillin-resistant Staphylococcus aureus at sub-MIC measured after 20 days of continuous passage; format: functional, organism-based; settings: time 20.0 day
HEK-293T = assay: Cytotoxicity against HEK293T cells at 64 microg/ml by MTT assay; format: toxicity, cell-based; settings: human, dose 64 µg/ml
Staphylococcus aureus [11] = assay: Synergistic antibacterial activity against methicillin-resistant Staphylococcus aureus assessed as fractional inhibitory concentration index in presence of fluconazole; format: functional
Staphylococcus aureus [12] = assay: Synergistic antibacterial activity against methicillin-resistant Staphylococcus aureus assessed as fractional inhibitory concentration index in presence of ceftriaxone; format: functional
Staphylococcus aureus [13] = assay: Synergistic antibacterial activity against methicillin-resistant Staphylococcus aureus assessed as fractional inhibitory concentration index in presence of cefoxitin; format: functional
Staphylococcus aureus [14] = assay: Synergistic antibacterial activity against methicillin-resistant Staphylococcus aureus assessed as fractional inhibitory concentration index in presence of streptomycin; format: functional
Staphylococcus aureus [15] = assay: Synergistic antibacterial activity against methicillin-resistant Staphylococcus aureus assessed as fractional inhibitory concentration index in presence of chlorpromazine; format: functional
Staphylococcus aureus [16] = assay: Synergistic antibacterial activity against methicillin-resistant Staphylococcus aureus assessed as fractional inhibitory concentration index in presence of norfloxacin; format: functional, organism-based
Staphylococcus aureus [17] = assay: Synergistic antibacterial activity against methicillin-resistant Staphylococcus aureus assessed as fractional inhibitory concentration index in presence of LCN antibiotic; format: functional, organism-based
Staphylococcus aureus [18] = assay: Synergistic antibacterial activity against methicillin-resistant Staphylococcus aureus assessed as fractional inhibitory concentration index in presence of polymyxin B; format: functional, organism-based
Staphylococcus aureus [19] = assay: Synergistic antibacterial activity against methicillin-resistant Staphylococcus aureus assessed as fractional inhibitory concentration index in presence of enrofloxacin; format: functional, organism-based
Staphylococcus aureus [20] = assay: Antibiofilm activity against methicillin-resistant Staphylococcus aureus assessed as decrease in biofilm biomass at 1 to 8 times of MIC by crystal violet staining based analysis; format: functional, organism-based
Staphylococcus aureus [21] = assay: Selectivity ratio of MBEC for methicillin-resistant Staphylococcus aureus to MIC for methicillin resistant Staphylococcus aureus; format: functional
Staphylococcus aureus [22] = assay: Antibiofilm activity against methicillin-resistant Staphylococcus aureus assessed as inhibition of biofilm formation at 2 times of MIC by crystal violet staining based analysis relative to control; format: functional
Cell membrane [23] = assay: Disruption of cell membrane integrity in methicillin-resistant Staphylococcus aureus assessed as increase in PI fluorescence at 2 to 8 times of MIC by PI staining based fluorescence analysis; format: subcellular
Cell membrane [24] = assay: Disruption of cell membrane integrity in Candida albicans; format: subcellular
Cell membrane [25] = assay: Disruption of cell membrane integrity in methicillin-resistant Staphylococcus aureus assessed as nucleic acid leakage by absorbance based analysis; format: subcellular
Cell membrane [26] = assay: Disruption of cell membrane integrity in methicillin-resistant Staphylococcus aureus assessed as increase in ROS level at 2 to 8 times of MIC incubated for 1 hrs; format: subcellular
Staphylococcus aureus [27] = assay: Antimicrobial activity against methicillin-resistant Staphylococcus aureus in presence of peptidoglycan; format: functional, organism-based
Staphylococcus aureus [28] = assay: Antimicrobial activity against methicillin-resistant Staphylococcus aureus in presence of cardiolipin; format: functional, organism-based
Staphylococcus aureus [29] = assay: Antimicrobial activity against methicillin-resistant Staphylococcus aureus in presence of phosphatidylethanolamine; format: functional, organism-based
Cell membrane [30] = assay: Disruption of cell membrane integrity in methicillin-resistant Staphylococcus aureus assessed as cell rupture at 2 to 4 times of MIC by scanning electron microscopic analysis; format: subcellular
Cell membrane [31] = assay: Disruption of cell membrane integrity in methicillin-resistant Staphylococcus aureus assessed as cell deformation at 2 to 4 times of MIC by scanning electron microscopic analysis; format: subcellular
DNA [32] = assay: Binding affinity to methicillin-resistant Staphylococcus aureus DNA assessed as inhibition of DNA migration at 75 microg/ml by electrophoretic analysis; format: nucleic-acid assay; settings: dose 75.0 µg/ml
DNA [33] = assay: Binding affinity to methicillin-resistant Staphylococcus aureus DNA assessed as effect on helical structure by measuring change in positive and negative peaks at 10 to 40 microg/ml by CD spectra; format: nucleic-acid assay; settings: dose 10-40 µg/ml
DNA [34] = assay: Binding affinity to methicillin-resistant Staphylococcus aureus DNA assessed as change in DNA conformation by UV absorption based analysis; format: nucleic-acid assay
DNA [35] = assay: Binding affinity to methicillin-resistant Staphylococcus aureus DNA minor groove assessed as decrease in fluorescence by DAPI staining based analysis; format: nucleic-acid assay
Staphylococcus aureus [36] = assay: Antibacterial activity against methicillin-resistant Staphylococcus aureus infected in cyclophosphamide-injected Kunming mouse model of skin wound infection assessed as increase in body weight at 2 to 4 mg/kg measured after 3 days; format: functional, organism-based; settings: dose 2-4 mg/kg, time 3.0 day
Staphylococcus aureus [37] = assay: Antibacterial activity against methicillin-resistant Staphylococcus aureus infected in cyclophosphamide-injected Kunming mouse model of skin wound infection assessed as wound scabbing at 2 to 4 mg/kg measured after 2 days by photographic analysis; format: functional, organism-based; settings: dose 2-4 mg/kg, time 2.0 day
Staphylococcus aureus [38] = assay: Antibacterial activity against methicillin-resistant Staphylococcus aureus infected in cyclophosphamide-injected Kunming mouse model of skin wound infection assessed as wound repair by measuring reduction in wound area at 2 to 4 mg/kg measured for 7 days by photographic analysis; format: functional, organism-based; settings: dose 2-4 mg/kg, time 7.0 day
Staphylococcus aureus [39] = assay: Antibacterial activity against methicillin-resistant Staphylococcus aureus infected in cyclophosphamide-injected Kunming mouse model of skin wound infection assessed as reduction in bacterial load in skin at 2 mg/kg measured after 7 days; format: functional; settings: time 7 day
Staphylococcus aureus [40] = assay: Antibacterial activity against methicillin-resistant Staphylococcus aureus infected in cyclophosphamide-injected Kunming mouse model of skin wound infection assessed as reduction in IL-6 level in skin at 1 to 4 mg/kg administered for 7 days and measured on day 8; format: functional, organism-based; settings: dose 1-4 mg/kg, time 8.0 day
Staphylococcus aureus [41] = assay: (§1) Antibacterial activity against methicillin-resistant Staphylococcus aureus infected in cyclophosphamide-injected Kunming mouse model of skin wound infection assessed as reduction in skin lesions at 1 to 4 mg/kg administered for 7 days and measured on day 8 by H and E staining based analysis; format: functional, organism-based; settings: dose 1-4 mg/kg, time 8.0 day
Staphylococcus aureus [42] = assay: as §1, with “normal morphological appearance of” for “reduction in”, “skin” for “skin lesions”; format: functional, organism-based; settings: dose 1-4 mg/kg, time 8.0 day

CC(=O)O[C@H]1CC[C@]2(C)[C@H]3CC=C4[C@@H]5CC(C)(C)CC[C@]5(C(=O)NCCCNC(=N)N)CC[C@@]4(C)[C@]3(C)CC[C@H]2C1(C)C
MIC (Enterococcus faecalis): 2 µg/mL (≈ 3.35 µM) | MIC (Staphylococcus aureus [1]): 2 µg/mL (≈ 3.35 µM) | MIC (Staphylococcus aureus [2]): 1 µg/mL (≈ 1.68 µM) | MIC (Staphylococcus aureus [3]): 1 µg/mL (≈ 1.68 µM) | MIC (Staphylococcus aureus [4]): 1 µg/mL (≈ 1.68 µM) | MIC (Candida albicans): 1 µg/mL (≈ 1.68 µM) | HC50 [5]: 399 µg/mL | selectivity ratio [6]: 399 | MIC (Pseudomonas aeruginosa): > 64 µg/mL | MIC (Escherichia coli): > 64 µg/mL | Activity (Staphylococcus aureus [7]): Active | Activity (Staphylococcus aureus [8]): Active | Activity (Staphylococcus aureus [9]): 99.99% | Activity (Staphylococcus aureus [10]): Active | Activity (HEK-293T): Non-Toxic | Activity (Staphylococcus aureus [11]): Active | Activity (Staphylococcus aureus [12]): Active | Activity (Staphylococcus aureus [13]): Active | Activity (Staphylococcus aureus [14]): Active | Activity (Staphylococcus aureus [15]): Active | Activity (Staphylococcus aureus [16]): Active | Activity (Staphylococcus aureus [17]): Active | Activity (Staphylococcus aureus [18]): Active | Activity (Staphylococcus aureus [19]): Active | Activity (Staphylococcus aureus [20]): Active | selectivity ratio (Staphylococcus aureus [21]): 16 | inhibition (INH) (Staphylococcus aureus [22]): >80% | Activity (Cell membrane [23]): Active | Activity (Cell membrane [24]): Active | Activity (Cell membrane [25]): Active | Activity (Cell membrane [26]): Active | Activity (Staphylococcus aureus [27]): Active | Activity (Staphylococcus aureus [28]): inactive | Activity (Staphylococcus aureus [29]): inactive | Activity (Cell membrane [30]): Active | Activity (Cell membrane [31]): Active | Activity (DNA [32]): Active | Activity (DNA [33]): Active | Activity (DNA [34]): Active | Activity (DNA [35]): inactive | Activity (Staphylococcus aureus [36]): Active | Activity (Staphylococcus aureus [37]): Active | Activity (Staphylococcus aureus [38]): Active | Activity (Staphylococcus aureus [39]): 1.24 log10CFU/mg | Activity (Staphylococcus aureus [40]): Active | Activity (Staphylococcus aureus [41]): Active | Activity (Staphylococcus aureus [42]): Active
